# In patent publication US12697315B2, “Treatment for interstitial lung disease” (United Therapeutics Corporation, priority 2020, dated 2026):
# Columns and labels:
# Format in all cases: in vivo, human
# [1] = system: patients with interstitial lung disease and pulmonary hypertension; experiment: Supplemental oxygen use, INCREASE
# [2] = system: patients with interstitial lung disease and pulmonary hypertension; experiment: Exacerbations of underlying lung disease, 16-week placebo-controlled trial of inhaled treprostinil (INCREASE)
# Procedure: Subjects having underlying lung disease were treated with inhaled treprostinil over 16 weeks. Subjects initiated inhaled treprostinil or placebo at a dose of 3 breaths (18 mcg) 4 times daily (during waking hours). Study drug doses were maximized throughout the study. Dose escalations (additional 1 breath 4 times daily) could occur up to every 3 days with a target dosing regimen of 9 breaths (54 mcg) 4 times daily and a maximum dose of 12 breaths (72 mcg) 4 times daily, as clinically tolerated. Subjects were assessed during Screening and Baseline to determine eligibility for the study. Once eligible, 5 Treatment Phase visits to the clinic were required at Week 4, Week 8, Week 12, Week 15, and Week 16 (final study visit). An Early Termination (ET) Visit was conducted for subjects who discontinued prior to Week 16; all assessments planned for the final Week 16 Visit were conducted during the ET Visit, if applicable. Subjects were contacted at least weekly by telephone or email to assess tolerance to study drug, adverse events (AEs), and changes to concomitant medications.
# NT-proBNP = experiment: Plasma NT-proBNP level, INCREASE; conditions: for NT-proBNP treatment ratio (ratio of ratios between treatment groups): vs placebo, week 16
# Procedure: (§1) We enrolled patients with interstitial lung disease and pulmonary hypertension (documented by right heart catheterization) in a multicenter, randomized, double-blind, placebo-controlled, 16-week trial. Patients were assigned in a 1:1 ratio to receive inhaled treprostinil, administered by means of an ultrasonic, pulsed-delivery nebulizer in up to 12 breaths (total, 72 μg) four times daily, or placebo. The primary efficacy end point was the difference between the two treatment groups in the change in peak 6-minute walk distance from baseline to week 16. Secondary end points included the change in N-terminal pro-B-type natriuretic peptide (NT-proBNP) level at week 16 and the time to clinical worsening.
# (§2) The 6-minute walk test was performed and laboratory data were obtained at baseline and at weeks 4, 8, 12, and 16, or at the time of early discontinuation of treprostinil or placebo. Each 6-minute walk test was performed 10 to 60 minutes after the most recent dose of active drug or placebo, which is the time of peak plasma treprostinil exposure. A trough test was performed at week 15 at least 4 hours after the participant received a dose of treprostinil or placebo and at least 24 hours before the week 16 test. Pulse oximetry was performed immediately before, during, and after each 6-minute walk test. Measurement of N-terminal pro-B-type natriuretic peptide (NT-proBNP) levels and pulmonary function tests were performed at baseline and at weeks 8 and 16 (or at early discontinuation) after the patients recovered from the 6-minute walk test. The St. George's Respiratory Questionnaire (SGRQ), a quality-of-life measure, was completed at baseline and week 16 or at the time of early discontinuation.
# (§3) The primary end point of the trial was the difference between the two groups in the change in peak 6-minute walk distance from baseline to week 16. Secondary efficacy end points were analyzed in the following hierarchical testing order: the change in NT-proBNP level from baseline to week 16, the time to clinical worsening, the change in 6-minute walk distance at peak plasma treprostinil level at week 12, and the change in 6-minute walk distance at trough treprostinil level at week 15. The time to clinical worsening was evaluated from the time of randomization until the patient's withdrawal from the trial and was defined as the time until the occurrence of any one of the following events: hospitalization for a cardiopulmonary indication, a decrease in 6-minute walk distance greater than 15% from baseline that was directly related to the disease under study at two consecutive visits and at least 24 hours apart, death from any cause, or lung transplantation.
# [3] = system: patients with interstitial lung disease and pulmonary hypertension; experiment: SpO2 by pulse oximetry around the 6-minute walk test, INCREASE
# Procedure: as §2
# [4] = system: patients with interstitial lung disease and pulmonary hypertension; experiment: Occurrence of / time to clinical worsening, INCREASE
# Procedure: as §3
# [5] = system: patients with interstitial lung disease and pulmonary hypertension; experiment: 6-minute walk test, INCREASE
# Procedure: as §1, §2, §3
# For the primary efficacy analysis, the change in 6-minute walk distance was analyzed by mixed-model repeated-measures methods, under the assumption that missing data were missing at random. The model included the change from baseline to peak 6-minute walk distance as the dependent variable, with treatment, week, and treatment-by-week interaction as fixed effects, and the baseline 6-minute walk distance as a covariate. A sensitivity analysis for the primary end point was performed by means of a multiple imputation approach with a multivariate normal imputation model according to the Markov chain Monte Carlo method. The imputation model included treatment group, all scheduled visits, the patient's sex, and the patient's age at randomization. If the result for the primary efficacy end point was significant, secondary efficacy end points were to be evaluated according to a hierarchical testing procedure. Confidence intervals have not been adjusted for multiplicity and can-not be used to infer definitive treatment effects for secondary efficacy end points.
# [6] = system: patients with interstitial lung disease and pulmonary hypertension; experiment: St. George's Respiratory Questionnaire, INCREASE
# Procedure: as §2
# The St. George's Respiratory Questionnaire has a range of results from 0 to 100, with higher scores indicating greater impairment and with a minimum clinically important difference of 4 points.
# The changes from baseline in Total Score and each of the 3 domain scores were analyzed by parametric ANCOVA with no imputation for missing data.
# [7] = vs placebo, listed as Inhaled Treprostinil
# [8] = vs placebo, listed as inhaled treprostinil
compound,measurement,setting,value
"CCCCC[C@H](O)CC[C@@H]1[C@H]2Cc3cccc(OCC(=O)O)c3C[C@H]2C[C@H]1O [Inhaled treprostinil, treprostinil]","Supplemental oxygen use During Walk (L/min), Change from Baseline, Median",[1]; Baseline During Walk,0.0 L/min
same,"Supplemental oxygen use During Walk (L/min), Value, Median",[1]; Baseline During Walk,4.0 L/min
same,"Supplemental oxygen use During Walk (L/min), Change from Baseline, Mean (SD)","[1]; Baseline During Walk, n 129",0.1 (0.8) L/min
same,"Supplemental oxygen use During Walk (L/min), Value, Mean (SD)","[1]; Baseline During Walk, n 129",4.9 (4.0) L/min
same,"Supplemental oxygen use Pre-walk (L/min), Change from Baseline, Median",[1]; Week 16,0.0 L/min
same,"Supplemental oxygen use Pre-walk (L/min), Value, Median",[1]; Week 16,3.0 L/min
same,"Supplemental oxygen use Pre-walk (L/min), Change from Baseline, Mean (SD)","[1]; Week 16, n 131",0.4 (1.4) L/min
same,"Supplemental oxygen use Pre-walk (L/min), Value, Mean (SD)","[1]; Week 16, n 131",3.0 (2.5) L/min
same,treatment-related changes in supplemental oxygen use,[1]; over the trial period,no significant treatment-related changes
same,patients with exacerbations of underlying lung disease,[2]; over the 16-week treatment period,26.4%
same,"hazard ratio, exacerbation of underlying lung disease","[2]; vs placebo, 16 weeks",0.66
same,reduction in risk of an exacerbation of underlying lung disease,"[2]; vs placebo, 16 weeks",34%
same,"Change in plasma concentration of NT-proBNP from baseline to wk 16, Mean (±SD) change",NT-proBNP; 156 patients,-396.35 ± 1904.90 pg/mL
same,"Change in plasma concentration of NT-proBNP from baseline to wk 16, Median",NT-proBNP; 156 patients,-22.65 pg/mL
same,reduction in NT-proBNP compared to placebo,NT-proBNP; Week 16,42%
same,reduction in NT-proBNP levels from baseline,NT-proBNP; Week 16,15%
same,NT-proBNP treatment ratio (ratio of ratios between treatment groups),NT-proBNP; listed as Inhaled Treprostinil,±0.58 ± 0.06
same,NT-proBNP treatment ratio (ratio of ratios between treatment groups),NT-proBNP; listed as inhaled treprostinil,0.58
same,"NT-proBNP, Ratio to baseline","NT-proBNP; wk 16, LS mean of log-transformed data ± SE",0.85 ± 0.06
same,"During Walk SpO2 (%), Change from Pre-walk, Median",[3]; Week 16,−17.0%
same,"During Walk SpO2 (%), Value, Median",[3]; Week 16,77.0%
same,"Post-walk SpO2 (%), Change from Pre-walk, Median",[3]; Week 16,−13.0%
same,"Post-walk SpO2 (%), Value, Median",[3]; Week 16,83.0%
same,"Pre-walk SpO2 (%), Value, Median",[3]; Week 16,95.0%
same,"During Walk SpO2 (%), Change from Pre-walk, Mean (SD)","[3]; Week 16, n 123",−17.6 (7.01) %
same,"During Walk SpO2 (%), Value, Mean (SD)","[3]; Week 16, n 123",76.8 (7.70) %
same,"Post-walk SpO2 (%), Change from Pre-walk, Mean (SD)","[3]; Week 16, n 128",−12.4 (8.05) %
same,"Post-walk SpO2 (%), Value, Mean (SD)","[3]; Week 16, n 128",82.1 (9.24) %
same,"Pre-walk SpO2 (%), Value, Mean (SD)","[3]; Week 16, n 130",94.5 (4.35) %
same,treatment-related changes in pulse oximetry,[3]; over the trial period,no significant treatment-related changes
same,patients with clinical worsening,[4]; 16 weeks,22.7%
same,patients with first occurrence of clinical worsening that involved hospitalization for a cardiopulmonary indication,[4]; 16 weeks,11.0%
same,Clinical worsening: Death from any cause,"[4]; 16 weeks, N = 163",4 (2.5) no. (%)
same,Clinical worsening: Decrease in 6 minute walk distance of >15% from baseline,"[4]; 16 weeks, N = 163",13 (8.0) no. (%)
same,Clinical worsening: Hospitalization for cardiopulmonary indication,"[4]; 16 weeks, N = 163",18 (11.0) no. (%)
same,Clinical worsening: Lung transplantation,"[4]; 16 weeks, N = 163",2 (1.2) no. (%)
same,Occurrence of clinical worsening: Any event,"[4]; 16 weeks, N = 163",37 (22.7) no. (%)
same,"Occurrence of clinical worsening, hazard ratio","[4]; vs placebo, Cox proportional-hazards model, listed as inhaled treprostinil",0.61
same,Change in peak 6-minute walk distance from baseline to wk 16,"[5]; LS mean ± SE, MMRM",21.08 ± 5.12 m
same,Least-squares mean change in peak 6-minute walk distance from baseline to wk 12,[5]; mean ± SE,18.77 ± 4.99 m
same,Least-squares mean change in trough 6-minute walk distance from baseline to wk 15,[5]; mean ± SE,9.3 ± 5.5 m
same,"Treatment effect, least-squares mean difference in change in peak 6-minute walk distance, baseline to wk 16","[5]; vs placebo, MMRM, listed as Inhaled Treprostinil",31.12 ± 7.25 m
same,"Treatment effect, least-squares mean difference in change in peak 6-minute walk distance, baseline to wk 16","[5]; vs placebo, MMRM, listed as inhaled treprostinil",31.12 m
same,"Treatment effect, least-squares mean difference in change in peak 6-minute walk distance, baseline to wk 16","[5]; vs placebo, MMRM, listed as treprostinil",31.12 m
same,"Treatment effect, least-squares mean difference in peak 6-minute walk distance, baseline to wk 12",[5]; [7],31.29 ± 7.07 m
same,"Treatment effect, least-squares mean difference in trough 6-minute walk distance, baseline to wk 15",[5]; [7],21.99 ± 7.7 m
same,"Treatment effect, least-squares mean difference in peak 6-minute walk distance, baseline to wk 12",[5]; [8],31.29 m
same,"Treatment effect, least-squares mean difference in trough 6-minute walk distance, baseline to wk 15",[5]; [8],21.99 m
same,between-group difference in change from baseline in peak 6-minute walk distance at week 16,"[5]; vs placebo, multiple imputation, Markov chain Monte Carlo",30.97 m
same,"St. George's Respiratory Questionnaire, Change from Baseline, Median",[6]; Week 16,−0.70
same,"St. George's Respiratory Questionnaire, Value, Median",[6]; Week 16,56.30
same,"St. George's Respiratory Questionnaire, Change from Baseline, LS Mean (SE)","[6]; Week 16, ANCOVA",−1.30 (0.87)
same,"St. George's Respiratory Questionnaire, Change from Baseline, Mean (SD)","[6]; Week 16, n 143",−1.25 (10.99)
same,"St. George's Respiratory Questionnaire, Value, Mean (SD)","[6]; Week 16, n 143",55.91 (17.07)
same,"St. George's Respiratory Questionnaire, LS Mean Difference","[6]; week 16, vs placebo","−1.18, (1.25) (−3.63, 1.28)"
same,between-group difference in patient-reported quality of life assessed with the SGRQ,"[6]; week 16, vs placebo",no significant between-group difference
